These molecules were tested on SCID mice grafted with human skin infected with Nm 2C4.3 (assay: Vascular lesions in SCID mice grafted with human skin infected with N. meningitidis (4 h)). Settings: data not shown.
Type: in vivo
Description: FIG. 7: ANGPTL4 reduces signs of thrombosis, vascular injury and inflammation. A-D, SCID mice grafted with human skins were infected intravenously with Nm 2C4.3 wild-type strain (5×10^6 bacteria) or left uninfected. A period of 30 min or 2 h after bacterial challenge, mice received 1 μg of recombinant human ANGPTL4, nANGPTL4 or cANGPTL4 intravenously or the vehicle as a control. Mice were killed at 4 h post-challenge. This experiment was performed twice with n=3 or 4 mice per group, using skin from two different donors. A, A schematic representation of the protocols used in vivo. B, Control bacteraemia 4 h post-infection (mean±s.e.m.). C, Bacterial colonization within the skin grafts as assessed by immunofluorescence analysis was quantified using ImageJ software as the ratio between bacterial surface colonization and the lumen surface of the vessels. A total of 30-50 vessels per mouse were analysed. Error bars show mean±s.e.m. D, Thrombus formation within the skin grafts was assessed by immunofluorescence analysis and quantified using ImageJ as the ratio between thrombus surfaces and the lumen surface of the vessels. A total of 30-50 vessels per mouse were analysed. Error bars show mean±s.e.m.; *** P<0.0001; ns P=0.0541 two-tailed Student's t-test.
Six-week-old CB17/Icr-Prkdcscid female mice were obtained from Janvier Labs. Human skin tissues were obtained from adult patients undergoing plastic surgery in the Service de Chirurgie Plastique et Reconstructive of the Groupe Hospitalier Saint-Joseph. […] Experimental procedures were performed as previously described in accordance with the guidelines of the Institut National de la Santé et de la Recherche Médicale and conformed to the European ethical legislation (Directive 2010/63/EU). The experimental protocol was approved by the Animal Experimentation Ethics Committee of the Université Paris Descartes (consent forms CEEA34.O.J.L.039.12 and 2018012515596498). […]. A skin flap was created and a full thickness human skin graft was placed onto the wound bed. The transplants were held in place with 6-0 non-absorbable monofilament suture materials, and the flap was then sutured above the transplant. Grafted mice were infected 4-6 weeks after human skin transplantation. N. meningitidis was grown overnight at 37° C. on GCB agar plates prepared without iron and supplemented with 15 μM deferoxamine (Desferal, Novartis). Bacterial colonies were harvested and cultured in RPMI media with 1% BSA medium and 0.06 μM deferoxamine with gentle agitation to reach the exponential phase of growth. Bacteria were then resuspended in physiological saline solution. Mice were infected intravenously with 200 μl (5×10^6 bacteria) of this bacterial suspension. A 10 mg dose of human holotransferrin (R&D Systems) was administered intraperitoneally just before infection. Mice were killed at 4 h after infection. Human skin grafts were carefully collected using a sterile cutter. The tissue was washed in PBS and fixed overnight at 4° C. in 4% paraformaldehyde in phosphate buffer. After washing in phosphate buffer, the specimens were embedded in OCT medium and then frozen at −80° C. Sections of the dermis (7 μm thick) were immobilized on Superfrost Plus microscope slides and subjected to immunofluorescence analysis. Sections were incubated with the primary antibodies for 1 h in PBS/3% BSA then DAPI was added to Alexa-conjugated secondary antibodies for 1 h. After additional washing, coverslips were mounted in glycergel (Dako) and were further analysed using a slide scanner (Lamina, Perkin Elmer). Analysis of the images was performed using ImageJ software (NIH). […]

Molecule	protective effects on vascular alteration, thrombosis or the release of inflammatory markers
rhANGPTL3: recombinant human ANGPTL3 (3829-AN) from R&D Systems (protein, UniProt Q9Y5C1 17-460, looked up) Angiopoietin-related protein 3: SRIDQDNSSFDSLSPEPKSRFAMLDDVKILANGLLQLGHGLKDFVHKTKGQINDIFQKLNIFDQSFYDLSLQTSEIKEEEKELRRTTYKLQVKNEEVKNMSLELNSKLESLLEEKILLQQKVKYLEEQLTNLIQNQPETPEHPEVTSLKTFVEKQDNSIKDLLQTVEDQYKQLNQQHSQIKEIENQLRRTSIQEPTEISLSSKPRAPRTTPFLQLNEIRNVKHDGIPAECTTIYNRGEHTSGMYAIRPSNSQVFHVYCDVISGSPWTLIQHRIDGSQNFNETWENYKYGFGRLDGEFWLGLEKIYSIVKQSNYVLRIELEDWKDNKHYIEYSFYLGNHETNYTLHLVAITGNVPNAIPENKDLVFSTWDHKAKGHFNCPEGYSGGWWWHDECGENNLNGKYNKPRAKSKPERRRGLSWKSQNGRLYSIKSTKMLIHPTDSESFE	no protective effects
rhANGPTL8: recombinant human ANGPTL8 (9983-AN) from R&D Systems (protein, UniProt Q6UXH0 22-198, looked up) Angiopoietin-like protein 8: APMGGPELAQHEELTLLFHGTLQLGQALNGVYRTTEGRLTKARNSLGLYGRTIELLGQEVSRGRDAAQELRASLLETQMEEDILQLQAEATAEVLGEVAQAQKVLRDSVQRLEVQLRSAWLGPAYREFEVLKAHADKQSHILWALTGHVQRQRREMVAQQHRLRQIQERLHTAALPA	no protective effects

Each molecule was assayed on HDMECs infected with Nm 2C4.3 (assay: Integrity of HDMEC monolayers infected with N. meningitidis (VE-cadherin at intercellular junctions, immunofluorescence)). Settings: 1 μg/mL added 30 min after initiation of Nm infection, 2 h 30.
Type: cell-based, human
Description: FIG. 1. Exogenous ANGPTL4 exerts protective effects on dermal microvascular endothelial cells infected by N. meningitidis. A. HDMECs were infected with Nm 2C4.3 for 30 min and treated with 1 μg/mL of recombinant human ANGPTL4 for 2 h 30. Cells were fixed and stained for cellular actin, VE-cadherin and DAPI and analyzed by fluorescent microscopy. Quantifications of VE-cadherin enrichment at intercellular junctions and of intercellular spaces area were performed on 30 fields with Image J software. Kruskal-Wallis test ** P<0.001; P<0.0001. B. HDMEC were either uninfected or infected with N. meningitidis 2C4.3 for 30 min and treated with 1 μg mL−1 of recombinant human ANGPTL4, its N-terminal portion (nANGPTL4) or its C-terminal portion (cANGPTL4) for 2 h 30. Caspase-3/7 reagent was added to detect apoptosis in real time over 9 h using the IncuCyte® Live-Cell Analysis System
FIG. 2: Vascular protection is conferred by the N-terminal part of ANGPTL4. A, Schematic representation of ANGPTL4 structure. ANGPTL4 contains a N-terminal portion (nANGPTL4, aa 26-164) linked to a C-terminal portion (cANGPTL4, aa 164-406) by a cleavable linker. nANGPTL4 contains a highly conserved lipoprotein lipase (LPL) binding domain (aa 44-55), two cysteines on position 76 and 80 involved in protein oligomerization and a coiled-coil domain (aa 100-143). The C-terminal portion encodes a fibrinogen-like domain. B, HDMECs were infected with Nm 2C4.3 for 30 min and treated with 1 μg/mL of recombinant human ANGPTL4, nANGPTL4 or cANGPTL4 for 2 h 30. Cells were fixed and stained for cellular actin, VE-cadherin and DAPI and analyzed by fluorescent microscopy. B. Quantifications of VE-cadherin enrichment at intercellular junctions and of intercellular spaces area were performed on 30 fields with Image J software. Kruskal-Wallis test ** P<0.001, *** P<0.0001 of four independent experiments performed in triplicate.
FIG. 3: Vascular protection is conferred by a novel binding motif (aa 66-80) present in the N-terminal part of ANGPTL4. A, the indicated peptides were derived from nANGPTL4. B, HDMECs were infected with Nm 2C4.3 for 30 min and treated with 1 μg/mL of each peptides. Quantifications of VE-cadherin enrichment at intercellular junctions was performed on 30 fields with Image J software.
FIG. 4: Vascular protection is conferred by interaction of nANGPTL4 with Syndecan-4. A, HDMECs were infected with Nm 2C4.3 for 30 min and treated with 1 μg/mL of recombinant human ANGPTL4, nANGPTL4 or cANGPTL4 in the absence or in the presence of anti-SDC4 antibody for 2 h 30. Cells were fixed and stained for cellular actin, VE-cadherin and DAPI and analysed by fluorescent microscopy. Quantifications of VE-cadherin enrichment at intercellular junctions and of intercellular spaces area were performed on 30 fields with Image J software. Kruskal-Wallis test ** P<0.001, **** P<0.00001, ns1 P=0.2172; ns2 P>0.999 of four independent experiments performed in triplicate. B, HDMECs were transfected with small interfering RNA (siRNA) against SDC4 or non-targeting siRNA controls for 48 h, infected with Nm 2C4.3 for 30 min and treated with 1 μg/mL of recombinant human ANGPTL4, for 2 h 30. Quantifications of VE-cadherin enrichment at intercellular junctions and of intercellular spaces area were performed on 30 fields with Image J software. Kruskal-Wallis test ** P<0.001, *** P<0.0001, of two independent experiments performed in triplicate.
The day of infection, a suspension of the bacteria from an overnight culture on GCB agar plate was adjusted to OD600=0.05 and incubated for 2 h at 37° C. in a pre-warmed cell culture medium. Cells were infected with bacteria at a multiplicity of infection (MOI) of 100 bacteria per cell (OD=0.1) for 30 minutes, washed twice to remove non-adherent bacteria and infection was allowed to proceed for various periods of time. Cells were then washed and fixed in 4% paraformaldehyde for immunofluorescence analysis. […]

Molecule	protective effect on monolayer integrity (adherens junctions, cell detachment) of infected HDMECs
QLSALERRLSACGSAC (Peptide P6)	completely inhibited infection-induced damages
SALERRLSACGSAC [Peptide P13]	inhibits infection-induced damages
RTRSQLSALERRLSA (Peptide P7)	no effect
WDEMNVLAHGLLQLGQGL (Peptide P3)	no protective effects
REHAERTRSQLSALERRL (Peptide P5)	no effect
PEVLHSLQTQLKAQNSRIQQLFHKVAQQQRHLEKQHLRIQHLQSQFGLLD (Peptide P2)	no significant effect
REHAERTRSQLSALERRLSACGSACQGT (Peptide P4)	as efficient as P1 in providing protection
WDEMNVLAHGLLQLGQGLREHAERTRSQLSALERRLSAAGSAAQGT (Peptide P1 C76A, C80A) [Peptide P1 C76A/C80A]	efficiently provided cytoprotection to infection-induced damages
LSALERRLSA (Peptide P8)	no effect
LSALERRLSACGS [Peptide P12]	inhibits infection-induced damages
rhANGPTL3: recombinant human ANGPTL3 (3829-AN) from R&D Systems (protein, UniProt Q9Y5C1 17-460, looked up) Angiopoietin-related protein 3: SRIDQDNSSFDSLSPEPKSRFAMLDDVKILANGLLQLGHGLKDFVHKTKGQINDIFQKLNIFDQSFYDLSLQTSEIKEEEKELRRTTYKLQVKNEEVKNMSLELNSKLESLLEEKILLQQKVKYLEEQLTNLIQNQPETPEHPEVTSLKTFVEKQDNSIKDLLQTVEDQYKQLNQQHSQIKEIENQLRRTSIQEPTEISLSSKPRAPRTTPFLQLNEIRNVKHDGIPAECTTIYNRGEHTSGMYAIRPSNSQVFHVYCDVISGSPWTLIQHRIDGSQNFNETWENYKYGFGRLDGEFWLGLEKIYSIVKQSNYVLRIELEDWKDNKHYIEYSFYLGNHETNYTLHLVAITGNVPNAIPENKDLVFSTWDHKAKGHFNCPEGYSGGWWWHDECGENNLNGKYNKPRAKSKPERRRGLSWKSQNGRLYSIKSTKMLIHPTDSESFE	no protective effect
rhANGPTL8: recombinant human ANGPTL8 (9983-AN) from R&D Systems (protein, UniProt Q6UXH0 22-198, looked up) Angiopoietin-like protein 8: APMGGPELAQHEELTLLFHGTLQLGQALNGVYRTTEGRLTKARNSLGLYGRTIELLGQEVSRGRDAAQELRASLLETQMEEDILQLQAEATAEVLGEVAQAQKVLRDSVQRLEVQLRSAWLGPAYREFEVLKAHADKQSHILWALTGHVQRQRREMVAQQHRLRQIQERLHTAALPA	no protective effect

— patent publication US20250163116A1, “NEW METHOD TO TREAT INFECTIOUS DISEASES” (INSERM (INSTITUT NATIONAL DE LA SANTÉ ET DE LA RECHERCHE …, priority 2022, published 2025)
